Patent US20240076347A1, “METHODS FOR PREVENTING FUNGAL INFECTIONS” (Cidara Therapeutics, Inc., priority 2016, published 2024)
Numbered stars: 1 amine (or outer) side, 2 acyl side, 3 side chain; on linkers, the order of the positions; unused ones are H or OH. Bridge positions count the residues as written; N and C are the ends. Square brackets hold non-standard residues; d marks the D form. Peptide text beside a SMILES is read from it. * marks the point of attachment. ξ: configuration not given here. Orn(4R-OH,5R-OCH2CH2NMe3+) = C[N+](C)(C)CCO[C@@H](N[*:3])[C@H](O)C[C@H](N[*:1])C(=O)[*:2]; pTerphenylCO(4''-OnC5H11) = CCCCCOc1ccc(-c2ccc(-c3ccc(C(=O)*)cc3)cc2)cc1; hTyr(3S-OH,4S-OH) = N[C@H](C(=O)O)[C@H](O)[C@@H](O)c1ccc(O)cc1; X1 = C[C@H]1CN([*:1])C(C(=O)[*:2])C1O; Hyp = O=C(O)[C@@H]1C[C@@H](O)CN1; ξT = CC(O)C(N)C(=O)O

Key:
[1] = Plasma protein binding by ultracentrifugation; format: in vitro ADME; details: mouse plasma; read-out: percent of bound CD101, mean (protein binding) (converted)
Method: (§1) Concentrations in plasma ranging from 7 to 60 μg/mL were tested and resulting samples were analyzed by LC-MS/MS.

human plasma proteins = test: Plasma protein binding by ultracentrifugation; format: in vitro ADME
Method: as §1

C. albicans strain 529L = test: Rat model of vulvovaginal candidiasis, vaginal lavage and tissue burden; format: in vivo, Candida albicans; details: for reduction in terminal vaginal tissue burden: not statistically lower than vehicle
Method: Animal Strain. Wistar rats were supplied by Harlan Laboratories UK and were specific pathogen free. Rats weighed […] at the time of surgery. Ovariectomies were performed. Rats were allowed 4-7 days recovery before transportation to the facility where the experiment was to be performed. Following arrival, rats were allowed at least 4 days acclimatization before start of the experiment. Rats weighed 100-120 g at the time of ovariectomy and were about 300 g at start of the experiment.
Pre-conditioning. Female Wistar rats underwent ovariectomy at least 10 days prior to the study commencing. They were further pre-conditioned by treatment with 5 mg/kg 17-β-estradiol administered subcutaneously (SC) every other day on Days −7, −5, −3 and −1 prior to infection with C. albicans strain 529. Estradiol treatment continued every other day throughout the study to 7 days post-infection.
Yeast Isolate. Candida albicans strain 529L was used in this chronic rat vaginal infection model.
Infection. Yeast strains were inoculated aerobically onto Sabouraud dextrose agar media (SAB) containing 0.05 mg/mL chloramphenicol and incubated at 30° C. for 48-72 h. 18-24 h prior to infection, Yeast Peptone Dextrose (YPD) broths were inoculated with 2-3 isolated colonies from agar plates and incubated overnight (37° C. on an orbital shaker). Broths containing C. albicans strain 529L were washed 3 times with sterile phosphate buffered saline (PBS) before dilution to the correct inoculum for infection. Cell counts were determined using a haemocytometer and confirmed by quantitative culture on Sabouraud dextrose agar.
Rats were infected with 0.1 mL by intravaginal administration under inhaled isoflurane anaesthesia using about 9.8×10^5 CFU/mL (9.8×10^4 CFU/Rat) C. albicans strain 529L
Treatment. […] The fluconazole treatment also started at 24 h post infection but was administered by the PO route at the dose volume and frequency shown in Table 7. The study design is further outlined in FIG. 19.
Reduction in weight and general loss of condition due to estradiol treatment are also typical in this rat model. Colonization with C. albicans was determined by quantitative culture of daily vaginal lavage samples. Rats were euthanized 9 days post infection and C. albicans determined by quantitative culture of vaginal tissue (including uterine horns).
Lavage samples were obtained on Days 1 (pre-treatment), 2, 3, 5, 7, and 9 days post infection by flushing rat vaginas 4 times with 0.1 mL pre-warmed sterile PBS. Following euthanasia, vaginal tissue including uterine horns was removed prior to weighing. Tissues were homogenized in 2 mL sterile PBS using a bead-beater. Vaginal wash and tissue homogenates were diluted appropriately then quantitatively cultured on to Sabouraud dextrose agar containing 0.05 mg/mL chloramphenicol and incubated at 37° C. for up to 72 h before being counted.
Statistical analysis. Data were analyzed using StatsDirect software (version 2.7.8) using the non-parametric Kruskal-Wallis test and if this was statistically significant all pairwise comparisons were analyzed (Conover-Inman).

[2] = lavage Day 1 post treatment (Day 2 post infection), 5 mg/kg SC dosed once
[3] = lavage Day 1 post treatment (Day 2 post infection), 5 mg/kg SC dosed twice
[4] = lavage Day 1 post treatment (Day 2 post infection), 10 mg/kg SC dosed once
[5] = lavage Day 2 post treatment (Day 3 post infection), 5 mg/kg SC dosed once
[6] = lavage Day 2 post treatment (Day 3 post infection), 5 mg/kg SC dosed twice
[7] = lavage Day 2 post treatment (Day 3 post infection), 10 mg/kg SC dosed once
[8] = lavage Day 4 post treatment (Day 5 post infection), 5 mg/kg SC dosed once
[9] = lavage Day 4 post treatment (Day 5 post infection), 5 mg/kg SC dosed twice
[10] = lavage Day 4 post treatment (Day 5 post infection), 10 mg/kg SC dosed once
[11] = lavage Day 5 post infection, 10 mg/kg SC once

SMILES: CCCCCOc1ccc(-c2ccc(-c3ccc(C(=O)N[C@H]4C[C@@H](O)[C@@H](OCC[N+](C)(C)C)NC(=O)C5C(O)[C@@H](C)CN5C(=O)[C@H]([C@@H](C)O)NC(=O)[C@H]([C@H](O)[C@@H](O)c5ccc(O)cc5)NC(=O)[C@@H]5C[C@@H](O)CN5C(=O)C(C(C)O)NC4=O)cc3)cc2)cc1 (stereo partly drawn) [CD101] ({pTerphenylCO(4''-OnC5H11)}-[Orn(4R-OH,5R-OCH2CH2NMe3+)][ξT][Hyp][hTyr(3S-OH,4S-OH)]T[X1]; lactam 1-C)
- fraction unbound at 2.5 hr [1]: 0.008
- percent of bound CD101, mean (human plasma proteins; human plasma, 7 to 60 μg/mL): 97.4%
- higher free fraction in human vs mouse plasma (human plasma proteins; human vs mouse plasma): ~3 ×
- reduction in terminal vaginal tissue burden (C. albicans strain 529L; 5 mg/kg SC once, Day 9): about 0.4 Log10 CFU/g
- reduction in terminal vaginal tissue burden (C. albicans strain 529L; 5 mg/kg SC twice, Day 9): about 0.9 Log10 CFU/g
- rats with tissue burdens below the levels of detection (C. albicans strain 529L; 10 mg/kg SC once, Day 9): 5/6
- CFU (C. albicans strain 529L; 10 mg/kg SC once, all but one rat, Day 9): undetectable CFU
- Group Geometric mean (C. albicans strain 529L; [2]): 3.34 × 10^2 CFU/mL
- Log Group Geometric mean (C. albicans strain 529L; [2]): 2.52 CFU/mL
- Log reduction from vehicle control (C. albicans strain 529L; [2]): 1.17 CFU/mL
- Group Geometric mean (C. albicans strain 529L; [3]): 2.56 × 10^2 CFU/mL
- Log Group Geometric mean (C. albicans strain 529L; [3]): 2.41 CFU/mL
- Log reduction from vehicle control (C. albicans strain 529L; [3]): 1.29 CFU/mL
- Group Geometric mean (C. albicans strain 529L; [4]): 2.48 × 10^2 CFU/mL
- Log Group Geometric mean (C. albicans strain 529L; [4]): 2.39 CFU/mL
- Log reduction from vehicle control (C. albicans strain 529L; [4]): 1.30 CFU/mL
- burden vs vehicle, statistics (C. albicans strain 529L; lavage Day 2 post infection): neither the CD101 nor fluconazole burden was statistically different from the vehicle burden
- reduction in burden (C. albicans strain 529L; lavage Day 2 post infection, all doses of CD101): about 1.3 Log10 CFU/mL
- Group Geometric mean (C. albicans strain 529L; [5]): 1.21 × 10^2 CFU/mL
- Log Group Geometric mean (C. albicans strain 529L; [5]): 2.08 CFU/mL
- Log reduction from vehicle control (C. albicans strain 529L; [5]): 1.49 CFU/mL
- Group Geometric mean (C. albicans strain 529L; [6]): 1.95 × 10^2 CFU/mL
- Log Group Geometric mean (C. albicans strain 529L; [6]): 2.29 CFU/mL
- Log reduction from vehicle control (C. albicans strain 529L; [6]): 1.28 CFU/mL
- Group Geometric mean (C. albicans strain 529L; [7]): 23.2 CFU/mL
- Log Group Geometric mean (C. albicans strain 529L; [7]): 1.37 CFU/mL
- Log reduction from vehicle control (C. albicans strain 529L; [7]): 2.21 CFU/mL
- burden vs vehicle, statistics (C. albicans strain 529L; lavage Day 3 post infection, all treatments): statistically different from the vehicle treatments
- Group Geometric mean (C. albicans strain 529L; [8]): 1.70 × 10^3 CFU/mL
- Log Group Geometric mean (C. albicans strain 529L; [8]): 3.23 CFU/mL
- Log reduction from vehicle control (C. albicans strain 529L; [8]): 0.99 CFU/mL
- Group Geometric mean (C. albicans strain 529L; [9]): 1.73 × 10^3 CFU/mL
- Log Group Geometric mean (C. albicans strain 529L; [9]): 3.24 CFU/mL
- Log reduction from vehicle control (C. albicans strain 529L; [9]): 0.98 CFU/mL
- Group Geometric mean (C. albicans strain 529L; [10]): 1.73 CFU/mL
- Log Group Geometric mean (C. albicans strain 529L; [10]): 0.24 CFU/mL
- Log reduction from vehicle control (C. albicans strain 529L; [10]): 3.98 CFU/mL
- burden reduced to (C. albicans strain 529L; lavage Day 5 post infection, 5 mg/kg SC once or twice, not statistically different from vehicle): about 1 Log10 CFU/m
- burden reduced to (C. albicans strain 529L; [11]): about 4 Logo CFU/mL
- rats having burden below the limit of detection (C. albicans strain 529L; [11]): 5/6
